Data as given in paper PMC11791976, “CDC20‐Mediated Selective Autophagy Degradation of PBRM1 Affects Immunotherapy for Renal Cell Carcinoma” (Advanced Science, 2024).
Where a SMILES comes first, the peptide text is derived from it. The star is where a group is joined. Cbz = O=C(OCc1ccccc1)*

Test system: PBRM1
Assay: Immunoblot of PBRM1 / CDC20 protein level in cells treated with tool compounds
Assay type: cell-based
Conditions: for CDC20 protein level / PBRM1 protein level: cell cycle block, 24 h, Figure S1J,K
Method: Figure 3 Autophagy selectively degrades PBRM1 via the autophagic receptor p62 in a CDC20‐dependent manner. A) IB analysis of WCL lysates derived from WT or CDC20 knockdown 786‐O and 769‐P cells treated with NH4Cl (20 mM, 24 h) before harvesting. B) IB analysis of WCL lysates derived from 786‐O and 769‐P cells treated with NH4Cl (20 mM) for indicated hours. C) IB analysis of WCL lysates derived from 786‐O and 769‐P cells treated with chloroquine (CQ, 50 µM) for indicated hours. D) IB analysis of WCL lysates derived from 786‐O and 769‐P cells treated with glucose starvation (G.S.) for indicated hours. E) IB analysis of WCL lysates derived from 786‐O and 769‐P cells treated with serum starvation (S.S.) for indicated hours. F) IB analysis of WCL lysates derived from wild‐type (WT) or ATG5 knockdown 786‐O and 769‐P cells treated with serum starvation (S.S.) for indicated hours before harvesting. G) IB analysis of WCL and anti‐HA immunoprecipitates derived from 293T cells transfected with HA‐p62 and V5‐PBRM1. H) IB analysis of WCL and anti‐Flag immunoprecipitates derived from 293T cells transfected with Flag‐p62 and V5‐PBRM1. I) IB analysis of WCL lysates derived from shScr or p62 knockdown 786‐O and 769‐P cells using shRNA. J) IB analysis of WCL lysates derived from NC or p62 knockdown 786‐O cells using siRNA. NC, negative control. K,L) Immunoblotting analysis (K) and quantification (L) of cell lysates of WT and p62 knockdown 786‐O cells treated with cycloheximide (CHX, 20 µg ml^−1) at indicated time points. M) IB analysis of WCL and GST‐pull‐down products derived from 293T cells transfected with GST‐p62 and V5‐PBRM1. 24 h post transfection, cells were treated with serum starvation (S.S.) for 24 h before harvesting the cells. N) IB analysis of WCL and GST‐pull‐down products derived from 293T cells transfected with GST‐p62, HA‐CDC20 and V5‐PBRM1. O) IB analysis of WCL and GST‐pull‐down products derived from WT and CDC20 knockdown 293T cells transfected with GST‐p62 and V5‐PBRM1. P) Schematic representation of truncated constructs of p62 for mapping the interaction domain with PBRM1. Q) IB analysis of WCL and GST‐pull‐down products derived from 293T cells transfected with V5‐PBRM1 and indicated constructs of GST‐p62 plasmids. R) Schematic representation of truncated constructs of p62 for mapping the interaction domain with PBRM1. S) IB analysis of WCL and GST‐pull‐down products derived from 293T cells transfected with V5‐PBRM1 and indicated constructs of GST‐p62 plasmids.
Cells were washed 3 times with ice‐cold phosphate‐buffered saline (PBS). The appropriate RIPA or IP buffer was added, which was mixed with protease and phosphatase inhibitors in advance. After centrifugation, the cell lysate supernatant was collected and checked using the BCA qualification system. The appropriate protein‐loading buffer was added to the protein lysates and denatured in a boiling water bath for 5 min. Each sample contained 30 µg protein, which was loaded onto 8% or 10% SDS‐PAGE gels and transferred to a polyvinylidene fluoride (PVDF) membrane. Then, the PVDF membranes were […] in fresh milk for 1 h at room temperature. Primary antibodies of the targets were added to the PVDF membranes and incubated overnight at 4 °C. The cells were rinsed 3 times with TBST buffer, followed by incubation with peroxidase‐conjugated antibodies at room temperature for 1 h. After washing, the PVDF membranes were analyzed and visualized using an ECL system (Bio‐Rad, Hercules, CA, USA).
Supplementary Figure 1. PBRM1 fluctuates during cell cycle progression. (A) IB analysis of WCL and anti-HA immunoprecipitates derived from 293T cells transfected with HA-CDC20 and Flag-PBRM1. (B) Schematic representation of truncated constructs of CDC20 for mapping the interaction domain with PBRM1. (C) IB analysis of WCL and GST-pull-down products derived from 293T cells transfected with Flag-PBRM1 and indicated constructs of GST-CDC20. Vec, vector. […]

[1] = 786-O and 769-P cells, NH4Cl 20 mM, chloroquine 50 µM, indicated hours

Compound | protein level of PBRM1 (renca and 786-O cells, MG132 10 μM 12 hours, Figure S5O) | protein level of PBRM1 [1] | CDC20 protein level (786-O and 769-P cells) | PBRM1 protein level (786-O and 769-P cells)
CC(C)C[C@@H](C=O)NC(=O)[C@H](CC(C)C)NC(=O)[C@H](CC(C)C)NC(=O)OCc1ccccc1 [MG132] (Cbz-Leu-Leu-Leu-aldehyde) | enhance the protein level of PBRM1 | – | – | –
Cl.N [NH4Cl, ammonium chloride] | – | increased | – | –
CCN(CC)CCCC(C)Nc1ccnc2cc(Cl)ccc12 (stereo not shown) [chloroquine] | – | upregulated | – | –
COC(=O)Nc1nc2ccc(C(=O)c3cccs3)cc2[nH]1 [nocodazole] | – | – | decreased | upregulated
CC(=O)O[C@H]1C(=O)[C@@]2(C)[C@H]([C@H](OC(=O)c3ccccc3)[C@]3(O)C[C@H](OC(=O)[C@H](O)[C@@H](NC(=O)c4ccccc4)c4ccccc4)C(C)=C1C3(C)C)[C@]1(OC(C)=O)CO[C@@H]1C[C@@H]2O [taxol, paclitaxel] | – | – | decreased | upregulated
